We go through 17 compounds from US20240383905A1, “FGFR INHIBITORS AND METHODS OF USE THEREOF” (3H PHARMACEUTICALS CO., LTD., priority 2021, published 2024).

By IC50 is commonly meant the concentration that gives 50% inhibition.

One test has as its target T1, FGFR2 (Homo sapiens, UniProt P21802).
T1 construct: purchased Carna 08-134
In words: FGFR2 Biochemical Caliper Assay (KinEASE-TK kit). As to conditions: 0.07 nM FGFR2; compound incubated with protein 10 min, reaction 45 min at RT; read-out: FGFR2 Cliper IC50.

The target in the next test is T2, FGFR1 (Homo sapiens, UniProt P11362).
T2 construct: purchased Carna 08-133
T2 sequence (P11362 22-822): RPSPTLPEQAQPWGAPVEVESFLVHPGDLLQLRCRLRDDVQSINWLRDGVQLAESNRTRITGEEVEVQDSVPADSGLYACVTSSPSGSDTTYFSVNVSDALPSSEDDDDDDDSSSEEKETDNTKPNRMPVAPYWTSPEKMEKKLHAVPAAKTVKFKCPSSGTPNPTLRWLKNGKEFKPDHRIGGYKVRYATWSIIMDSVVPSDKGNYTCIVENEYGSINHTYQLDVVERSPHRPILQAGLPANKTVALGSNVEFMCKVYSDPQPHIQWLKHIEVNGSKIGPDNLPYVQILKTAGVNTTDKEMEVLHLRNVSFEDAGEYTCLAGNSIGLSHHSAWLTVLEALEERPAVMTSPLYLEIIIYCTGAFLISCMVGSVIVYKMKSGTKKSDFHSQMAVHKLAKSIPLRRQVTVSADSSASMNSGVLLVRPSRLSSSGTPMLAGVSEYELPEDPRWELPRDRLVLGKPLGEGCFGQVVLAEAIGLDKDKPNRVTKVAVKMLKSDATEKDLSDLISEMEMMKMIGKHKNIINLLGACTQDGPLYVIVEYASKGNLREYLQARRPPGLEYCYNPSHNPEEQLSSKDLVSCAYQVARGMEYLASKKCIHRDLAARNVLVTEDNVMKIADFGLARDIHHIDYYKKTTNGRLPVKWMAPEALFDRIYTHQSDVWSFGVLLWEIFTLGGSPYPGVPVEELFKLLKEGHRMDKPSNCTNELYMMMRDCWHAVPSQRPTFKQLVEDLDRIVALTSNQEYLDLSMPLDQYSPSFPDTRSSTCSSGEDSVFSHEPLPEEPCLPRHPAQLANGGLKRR
Nature of the test: FGFR1 Biochemical Caliper Assay (KinEASE-TK kit). As to conditions: ratio FGFR1/FGFR2 of the biochemical assay. In short, it runs like this: (§1)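 KinEASE-TK HTRF readout: enzyme at 0.2 nM (FGFR1, FGFR3) preincubated 10 min at RT with 10-point 3-fold compound dilutions before TK-substrate/ATP start.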

The target in the next test is T3, FGFR3 (Homo sapiens, UniProt P22607).
T3 construct: purchased Carna 08-135
T3 sequence (P22607 23-806): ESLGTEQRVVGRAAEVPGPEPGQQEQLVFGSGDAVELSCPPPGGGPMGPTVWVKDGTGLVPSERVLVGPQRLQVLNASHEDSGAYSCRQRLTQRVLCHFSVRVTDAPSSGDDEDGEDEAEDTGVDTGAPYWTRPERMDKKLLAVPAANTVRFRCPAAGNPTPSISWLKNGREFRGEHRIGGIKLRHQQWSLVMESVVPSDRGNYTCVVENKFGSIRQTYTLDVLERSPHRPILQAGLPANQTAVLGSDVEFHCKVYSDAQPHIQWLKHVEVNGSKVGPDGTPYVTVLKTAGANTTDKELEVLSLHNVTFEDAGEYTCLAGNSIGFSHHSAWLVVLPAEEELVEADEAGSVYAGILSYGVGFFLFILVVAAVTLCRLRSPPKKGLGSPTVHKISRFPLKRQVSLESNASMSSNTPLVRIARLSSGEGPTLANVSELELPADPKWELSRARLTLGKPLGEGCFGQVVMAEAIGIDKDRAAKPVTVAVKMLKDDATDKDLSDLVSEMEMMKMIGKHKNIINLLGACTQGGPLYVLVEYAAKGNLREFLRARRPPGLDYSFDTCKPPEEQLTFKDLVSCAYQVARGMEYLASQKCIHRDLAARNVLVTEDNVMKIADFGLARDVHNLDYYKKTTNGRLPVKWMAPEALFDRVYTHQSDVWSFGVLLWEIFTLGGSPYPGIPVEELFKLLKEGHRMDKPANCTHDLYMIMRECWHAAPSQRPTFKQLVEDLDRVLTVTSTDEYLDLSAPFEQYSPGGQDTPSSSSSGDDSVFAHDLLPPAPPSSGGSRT
Nature of the test: FGFR3 Biochemical Caliper Assay (KinEASE-TK kit). As to conditions: ratio FGFR3/FGFR2 of the biochemical assay. The procedure, abridged: as §1

Another test concerns SNU16 cells. Nature of the test: SNU16 Cancer Cell Line Proliferation Assay (CellTiter-Glo). The format is cell-based. Particulars: Homo sapiens, SNU-16, 72 h. In short, it runs like this: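 Luminescent ATP read-out after 72 h at 37 °C gave IC50 values; compounds tested as 9 three-fold serial dilutions on 5000 SNU16 cells per well, with DMSO as control.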
For orientation: ATP-based viability assays read luminescence as a measure of living cells.

Some results are limits rather than exact numbers.

T1 sequence (P21802 22-821): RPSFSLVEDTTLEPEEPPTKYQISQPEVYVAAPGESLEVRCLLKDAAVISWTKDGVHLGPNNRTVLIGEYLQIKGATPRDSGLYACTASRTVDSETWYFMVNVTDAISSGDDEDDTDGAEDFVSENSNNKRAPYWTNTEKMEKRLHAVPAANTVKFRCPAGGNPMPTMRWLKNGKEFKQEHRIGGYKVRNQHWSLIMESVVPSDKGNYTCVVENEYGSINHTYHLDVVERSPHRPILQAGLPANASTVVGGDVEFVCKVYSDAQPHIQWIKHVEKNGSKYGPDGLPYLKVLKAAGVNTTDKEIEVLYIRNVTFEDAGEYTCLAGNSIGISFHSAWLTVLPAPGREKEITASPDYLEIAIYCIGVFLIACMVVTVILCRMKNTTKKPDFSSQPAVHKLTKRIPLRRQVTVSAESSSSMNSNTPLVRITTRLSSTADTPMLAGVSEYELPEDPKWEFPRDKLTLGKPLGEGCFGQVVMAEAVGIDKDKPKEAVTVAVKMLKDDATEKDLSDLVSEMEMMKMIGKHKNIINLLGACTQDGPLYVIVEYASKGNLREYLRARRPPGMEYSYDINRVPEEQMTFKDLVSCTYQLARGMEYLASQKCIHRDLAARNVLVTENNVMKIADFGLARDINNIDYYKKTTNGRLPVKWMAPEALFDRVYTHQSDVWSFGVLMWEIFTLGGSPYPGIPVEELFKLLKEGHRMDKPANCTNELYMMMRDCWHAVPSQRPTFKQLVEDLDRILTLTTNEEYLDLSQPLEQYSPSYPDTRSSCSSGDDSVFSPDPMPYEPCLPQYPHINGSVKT

Take `C=CC(=O)Nc1ccc(-c2nn3ncnc(N)c3c2-c2ccc(C(=O)NC3CC3)c(OC)c2)c(F)c1` [Compound 155, 4-(6-(4-acrylamido-2-fluorophenyl)-4-aminopyrazolo[5,1-f] [1,2,4]triazin-5-yl)-N-cyclopropyl-2-methoxybenzamide]: the IC50 was below 5 nM at FGFR2 and at most 10 nM with SNU16 cells. The “Selectivity FGFR1/FGFR2” value at FGFR1 is “A+ (Selectivity of FGFR1/FGFR2 greater or equal to 500)”. The “Selectivity FGFR3/FGFR2” value at FGFR3 was “A (Selectivity of FGFR3/FGFR2 less than 150 but greater than or equal to 100)”.
In the case of `C=C(F)C(=O)Nc1ccc(-c2nn3ncnc(N)c3c2-c2ccc(C(=O)NCC3(C(F)(F)F)CC3)c(OC)c2)c(F)c1` [Compound 361], the figures for the IC50 on FGFR2 and in the test on SNU16 cells were below 5 nM and at most 10 nM, respectively. Further, the “Selectivity FGFR1/FGFR2” value at FGFR1 is given as “A (Selectivity of FGFR1/FGFR2 less than 500 but greater than or equal to 300)”. The “Selectivity FGFR3/FGFR2” value on FGFR3 is recorded as “A (Selectivity of FGFR3/FGFR2 less than 150 but greater than or equal to 100)”.
On the same counts, the results for `C=CC(=O)Nc1ccc(-c2nn3ncnc(N)c3c2-c2ccc(C(=O)NC3CCCC3)c(OC)c2)cc1` [Compound 55, 4-(6-(4-acrylamidophenyl)-4-aminopyrazolo[5,1-f] [1,2,4]triazin-5-yl)-N-cyclopentyl-2-methoxybenzamide] are below 5 nM, at most 10 nM, “A+ (Selectivity of FGFR1/FGFR2 greater or equal to 500)” and “A (Selectivity of FGFR3/FGFR2 less than 150 but greater than or equal to 100)”.
For `C=C(F)C(=O)Nc1ccc(-c2c(-c3ccc(C(=O)NC4CC4)c(OC)c3)c3c(N)ncc(C#N)c3n2C)c(OC)c1` [Compound 171, 4-(4-amino-7-cyano-2-(4-(2-fluoroacrylamido)-2-methoxyphenyl)-1-methyl-1H-pyrrolo[3,2-c]pyridin-3-yl)-N-cyclopropyl-2-methoxybenzamide] the same measures were below 5 nM, at most 10 nM, “C (Selectivity of FGFR1/FGFR2 less than 200 but greater than or equal to 100)” and “B (Selectivity of FGFR3/FGFR2 less than 100 but greater than or equal to 25)”.
For `C=CC(=O)Nc1ccc(-c2c(-c3ccc(C(=O)NC4CCC4)cc3)c3c(N)ncc(C#N)c3n2C)cc1` [Compound 65, 4-(2-(4-acrylamidophenyl)-4-amino-7-cyano-1-methyl-1H-pyrrolo[3,2-c]pyridin-3-yl)-N-cyclobutylbenzamide] the same measures were below 5 nM, at most 10 nM, “A (Selectivity of FGFR1/FGFR2 less than 500 but greater than or equal to 300)” and “A+ (Selectivity of FGFR3/FGFR2 greater or equal to 150)”.
As for `C=CC(=O)Nc1ccc(-c2nn3ncnc(N)c3c2-c2ccc(Oc3nccc(C)n3)c(F)c2)cc1` [Compound 205, N-(4-(4-amino-5-(3-fluoro-4-((4-methylpyrimidin-2-yl)oxy)phenyl)pyrazolo [5,1-f][1,2,4]triazin-6-yl)phenyl)acrylamide], the results for the IC50 at FGFR2 and in the test with SNU16 cells were below 5 nM and at most 10 nM, respectively. In addition, the “Selectivity FGFR1/FGFR2” value at FGFR1 is on record as “A+ (Selectivity of FGFR1/FGFR2 greater or equal to 500)”. Also, the “Selectivity FGFR3/FGFR2” value at FGFR3 was “B (Selectivity of FGFR3/FGFR2 less than 100 but greater than or equal to 25)”.
Turning to `CC#CC(=O)Nc1ccc(-c2nn3ncnc(N)c3c2-c2ccc(C(=O)NC3(C(F)(F)F)CC3)c(OC)c2)cc1` [Compound 395], the IC50 on FGFR2 is above 10 nM; in the test with SNU16 cells it was at most 10 nM. At FGFR1, the “Selectivity FGFR1/FGFR2” value was “A+ (Selectivity of FGFR1/FGFR2 greater or equal to 500)”. Also, the “Selectivity FGFR3/FGFR2” value at FGFR3 was “B (Selectivity of FGFR3/FGFR2 less than 100 but greater than or equal to 25)”.
For `C=CC(=O)Nc1ccc(-c2nn3ncnc(N)c3c2-c2ccc(Oc3nccc(N)n3)c(F)c2)cc1` [Compound 428] the same measures were above 10 nM, 10 to 50 nM, “A+ (Selectivity of FGFR1/FGFR2 greater or equal to 500)” and “A+ (Selectivity of FGFR3/FGFR2 greater or equal to 150)”.
For `C=C(F)C(=O)Nc1ccc(-n2nc3c(=O)[nH]nc(N)c3c2-c2ccc(C(=O)NC3CCC3)c(OC)c2)cc1` [Compound 137, 4-(4-amino-2-(4-(2-fluoroacrylamido)phe-nyl)-7-oxo-6,7-dihydro-2H-pyrazolo[3,4-d]pyridazin-3-yl)-N-cyclobutyl-2-methoxybenzamide] the same measures were 5 to 10 nM, 10 to 50 nM, “A+ (Selectivity of FGFR1/FGFR2 greater or equal to 500)” and “A+ (Selectivity of FGFR3/FGFR2 greater or equal to 150)”.
As to `C=CC(=O)Nc1ccc(-c2c(-c3ccc(C(=O)NC(C)C)c(OC)c3)c3c(N)ncc(C#N)c3n2C)cc1` [Compound 108, 4-(2-(4-acrylamidophenyl)-4-amino-7-cyano-1-methyl-1H-pyrrolo[3,2-c]pyridin-3-yl)-N-isopropyl-2-methoxybenzamide], the IC50 on FGFR2 was below 5 nM; in the test with SNU16 cells, at most 10 nM. Also, the “Selectivity FGFR1/FGFR2” value on FGFR1 is “A+ (Selectivity of FGFR1/FGFR2 greater or equal to 500)”. Moreover, on FGFR3, the “Selectivity FGFR3/FGFR2” value was “A (Selectivity of FGFR3/FGFR2 less than 150 but greater than or equal to 100)”.
For `C=CC(=O)Nc1ccc(-c2nn3ncnc(N)c3c2-c2ccc(C(=O)NCC(F)(F)F)c(OC)c2)cc1` [Compound 42, 4-(6-(4-acrylamidophenyl)-4-aminopyrazolo[5,1-f] [1,2,4]triazin-5-yl)-2-methoxy-N-(2,2,2-trifluoroethyl)benzamide] the same measures were below 5 nM, at most 10 nM, “A (Selectivity of FGFR1/FGFR2 less than 500 but greater than or equal to 300)” and “A (Selectivity of FGFR3/FGFR2 less than 150 but greater than or equal to 100)”.
For `C=CC(=O)Nc1ccc(-c2c(-c3ccc(C(=O)NCC(F)F)c(OC)c3)c3c(N)ncc(C#N)c3n2C)cc1` [Compound 198, 4-(2-(4-acrylamidophenyl)-4-amino-7-cyano-1-methyl-1H-pyrrolo[3,2-c]pyridin-3-yl)-N-(2,2-difluoroethyl)-2-methoxybenzamide], the IC50 at FGFR2 is below 5 nM; in the test on SNU16 cells, at most 10 nM. Besides, the “Selectivity FGFR1/FGFR2” value at FGFR1 is reported as “A (Selectivity of FGFR1/FGFR2 less than 500 but greater than or equal to 300)”. The “Selectivity FGFR3/FGFR2” value on FGFR3 was “A+ (Selectivity of FGFR3/FGFR2 greater or equal to 150)”.
For `C=CC(=O)Nc1ccc(-c2nn3ncnc(N)c3c2-c2ccc(C(=O)C3CCCCC3)c(OC)c2)cc1` [Compound 431, N-(4-(4-amino-5-(4-(cyclohexanecarbonyl)-3-methoxyphenyl)pyrazolo[5,1-f][1,2,4]triazin-6-yl)phenyl) acrylamide] the same measures were above 10 nM, at most 10 nM, “A+ (Selectivity of FGFR1/FGFR2 greater or equal to 500)” and “A+ (Selectivity of FGFR3/FGFR2 greater or equal to 150)”.
On the same counts, the results for `C=CC(=O)Nc1ccc(-c2c(-c3ccc(C(=O)NC4CC4(F)F)c(OC)c3)c3c(N)ncc(C#N)c3n2C)cc1` (centres unmarked) [Compound 167, 4-(2-(4-acrylamidophenyl)-4-amino-7-cyano-1-methyl-1H-pyrrolo[3,2-c]pyridin-3-yl)-N-(2,2-difluorocyclopropyl)-2-methoxybenzamide] are below 5 nM, at most 10 nM, “A (Selectivity of FGFR1/FGFR2 less than 500 but greater than or equal to 300)” and “B (Selectivity of FGFR3/FGFR2 less than 100 but greater than or equal to 25)”.
On the same counts, the results for `C=CC(=O)Nc1ccc(-c2nn3ncnc(N)c3c2-c2ccc(C(=O)NC3CC3)c(OC)c2)cc1` [Compound 89, 4-(6-(4-acrylamidophenyl)-4-aminopyrazolo[5,1-f] [1,2,4]triazin-5-yl)-N-cyclopropyl-2-methoxybenzamide] are below 5 nM, at most 10 nM, “A+ (Selectivity of FGFR1/FGFR2 greater or equal to 500)” and “A+ (Selectivity of FGFR3/FGFR2 greater or equal to 150)”.
For the compound `C=CC(=O)Nc1ccc(-c2nn3ncnc(N)c3c2-c2ccc(OC3CCCCC3)cc2)cc1` [Compound 228, N-(4-(4-amino-5-(4-(cyclohexyloxy)phenyl)pyrazolo[5,1-f][1,2,4]triazin-6-yl)phenyl)acrylamide], the IC50 on FGFR2 was 5 to 10 nM; in the test on SNU16 cells, at most 10 nM. Moreover, at FGFR1, the “Selectivity FGFR1/FGFR2” value was “A+ (Selectivity of FGFR1/FGFR2 greater or equal to 500)”. Further, the “Selectivity FGFR3/FGFR2” value at FGFR3 is “A+ (Selectivity of FGFR3/FGFR2 greater or equal to 150)”.
As to `C=C(C)C(=O)Nc1ccc(-c2c(-c3ccc(Oc4nccc(C)n4)cc3)c3c(N)ncc(C#N)c3n2C)c(F)c1` [Compound 467, N-(4-(4-amino-7-cyano-1-methyl-3-(4-((4-methylpyrimidin-2-yl)oxy)phenyl)-1H-pyrrolo[3,2-c]pyridin-2-yl)-3-fluorophenyl) methacrylamide], the IC50 at FGFR2 was above 10 nM; in the test with SNU16 cells, at most 10 nM. Further, the “Selectivity FGFR1/FGFR2” value on FGFR1 is given as “A+ (Selectivity of FGFR1/FGFR2 greater or equal to 500)”. For the same compound, the “Selectivity FGFR3/FGFR2” value at FGFR3 was “A+ (Selectivity of FGFR3/FGFR2 greater or equal to 150)”.
